Laboratory results taken from patent US20200261419A1, “COMBINATIONS FOR THE TREATMENT OF KIDNEY STONES” (Wake Forest University Health Sciences, priority 2015, published 2020).

What was measured:
[1] = target: T1, recombinant, human liver GO (the HAO1 gene product) (Homo sapiens, UniProt Q9UJM8); experiment: GO inhibition, coupled DCIP assay; format: biochemical; conditions: 37° C., 100 mM potassium phosphate pH 7.5, 75 μM DCIP, 3 mM glycolate; read-out: apparent Ki
T1 sequence (Q9UJM8 1-370): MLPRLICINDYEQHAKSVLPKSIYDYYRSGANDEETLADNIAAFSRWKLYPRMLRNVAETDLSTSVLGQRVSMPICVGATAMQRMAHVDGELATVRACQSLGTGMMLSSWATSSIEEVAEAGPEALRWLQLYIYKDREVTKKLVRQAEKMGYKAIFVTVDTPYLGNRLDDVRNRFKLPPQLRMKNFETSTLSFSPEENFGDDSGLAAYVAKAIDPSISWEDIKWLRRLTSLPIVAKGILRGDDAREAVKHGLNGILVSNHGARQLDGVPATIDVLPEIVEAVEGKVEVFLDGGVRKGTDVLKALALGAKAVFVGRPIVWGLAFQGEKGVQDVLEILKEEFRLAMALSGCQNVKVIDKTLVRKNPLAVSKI
Protocol: Testing of GO inhibitors. The inhibition of recombinant, human liver GO (the HAO1 gene product) is readily determined by a coupled assay that contains 2,6-dichloroindophenol (DCIP) (Murray et al. Biochemistry 47, 2439-2449, 2008). Briefly, GO is pre-incubated at 37° C. with or without inhibitor in 100 mM potassium phosphate pH 7.5 (0.1% DMSO final) for […]. An aliquot of pre-warmed DCIP and glycolate is added to start the reaction (final concentration 75 μM DCIP, 3 mM glycolate). The reaction rate is determined by monitoring the decrease at 600 nm (extinction coefficient of 21 mM^−1 cm^−1).

human HYPDH = target: T2, human HYPDH (Homo sapiens, UniProt Q9UF12); experiment: Anaerobic titration of the FAD spectrum of HYPDH; format: binding
T2 construct: Only the constructs containing the residues 147-515 and 156-515 were >96% loaded with FAD+ and active; made in house; host or cells: Escherichia coli
T2 sequence (Q9UF12 71-439 limits assumed): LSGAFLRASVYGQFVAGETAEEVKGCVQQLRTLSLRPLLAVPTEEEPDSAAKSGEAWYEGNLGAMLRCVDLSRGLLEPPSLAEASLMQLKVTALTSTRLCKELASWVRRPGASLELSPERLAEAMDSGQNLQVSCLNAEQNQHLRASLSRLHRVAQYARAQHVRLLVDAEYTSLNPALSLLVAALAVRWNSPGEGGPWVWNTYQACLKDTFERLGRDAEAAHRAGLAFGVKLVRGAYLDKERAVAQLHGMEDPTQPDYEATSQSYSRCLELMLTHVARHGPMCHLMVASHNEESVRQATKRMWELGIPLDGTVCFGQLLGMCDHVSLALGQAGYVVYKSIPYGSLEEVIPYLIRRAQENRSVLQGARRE

Ki [1] [µM]	Structure (SMILES)	Kd (human HYPDH) [µM]
~0.015	CCCCCCCCCCCCSc1snnc1C(=O)O [CDST]	
	O=C(O)[C@@H]1C[C@@H](O)CN1 [Hyp, Hydroxyproline]	125
